“And” between values parts separate entries of the source, which are not always exact repeats. Identical values can stand only once.
Experiments:
[1] = target: T1, Snake venom PLA2 (Agkistrodon piscivorus piscivorus) (Agkistrodon piscivorus piscivorus, UniProt P51972); assay: PLA2-controlled calcein release across non-hydrolysable D-O-SPC target membrane (micelle or liposome carriers); type: biochemical
T1 construct: This PLA2 enzyme belongs to the class of low-molecular weight 14 kD secretory enzymes; from tissue; host or cells: snake venom of Agkistrodon piscivorus piscivorus
T1 sequence (P51972 1-123): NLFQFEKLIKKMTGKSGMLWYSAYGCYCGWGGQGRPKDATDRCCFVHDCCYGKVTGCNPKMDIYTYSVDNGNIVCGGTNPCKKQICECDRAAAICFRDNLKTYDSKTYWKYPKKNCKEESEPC
Experimental: Multilamellar model membrane target liposomes were made in the presence of fluorescent calcein in a self-quenching concentration of 20 mM by hydrating a film of 1,2-O-dioctadecyl-sn-glycero-3-phosphatidylcholines (D-O-SPC) in a HEPES buffer solution at pH=7.5 for one hour at 10° C. above the phase transition temperature (Tm=55° C.). Unilamellar liposomes were made by extruding the multilamellar liposomes ten times through two stacked 100 nm polycarbonate filters. The unilamellar liposomes were rapidly cooled to a temperature below the transition temperature, and the calcein-containing liposomes were separated from free calcein using a chromatographic column packed with Sephadex G-50. […] (1-O-DPPE-PEG350), di-octadecanoyl-sn-glycero-3-phosphoethanolamine-N-[methoxy(polyethylene glycol)-750 (DSPE-PEG750). were prepared as described in example 6. Calcein release from the target liposomes is determined by measuring the fluorescent intensity at 520 nm after excitation at 492 nm.
The concentrations of D-O-SPC and polymer-lipid micelles were 25 μM. Snake venom PLA2 (Agkistrodon piscivorus piscivorus) was added (25 nM) to initiate the hydrolytic reaction leading to instant formation of the polymer-lyso-1-O-DPPE and the free fatty acid hydrolysis products. […] The percentage of calcein released is determined as described in example 3.
The experimental model system consists of a negatively charged liposome carrier and a model target membrane. The carrier is a 100 nm unilamellar liposome made of dipalmitoyl phosphatidylcholine lipids (DPPC) with small amounts (2.5 mol %) of negatively charged lipid of the type dipalmitoyl phosphatidylethanolamine (DPPE)—PEG2000. The target membrane is another liposome made of 1,2-O-dioctadecyl-sn-glycero-phosphatidylcholine (D-O-SPC) which is a phospholipid where the acyl linkages of the stearoyl chains are ether bonds. In contrast to DPPC, D-O-SPC is inert towards PLA2-catalysed hydrolysis thereby mimicking the stability of an intact target cell membrane toward degradation by its own enzymes. This experimental assay, which permits simultaneous as well as separate investigation of the effect of destabilisers at the carrier liposomes and the effect of enhancers at the target membrane, involves entrapment of a water-soluble fluorescent calcein model drug in a self-quenching concentration, in the interior of the non-hydrolysable target liposome, rather than in the carrier liposome. The enhanced level of extracellular PLA2 at the target membrane can then be simulated by adding extracellular PLA2 to initiate the hydrolytic reaction in a suspension of the carrier and target liposomes. The permeation of calcein across the D-O-SPC target membrane is subsequently monitored by the increase in fluorescence. In order to investigate the effect of the presence of small amounts of negatively charged lipids in the carrier liposome, a similar experiment was performed with conventional bare DPPC liposomes. Furthermore, in order to compare and discriminate the permeability enhancing effect of lyso-phospholipids from that of free fatty acids, experiments without enzymes were carried out where lyso-phospholipids and free fatty acids were added simultaneously or separately to the target liposomes.
DPPC, DCPC, D-O-SPC, and DPPE-PEG2000 were obtained from Avanti Polar Lipids. Purified snake venom PLA2 (Agkistrodon piscivorus piscivorus) was a generous gift from dr. R. L. Biltonen. This PLA2 enzyme belongs to the class of low-molecular weight, 14 kD secretory enzymes which display structural similarity to human extracellular phospholipase A2.

[2] = target: T2, phospholipase A2 (PLA2 from Agikistrodon piscivorus piscivorus) (Agkistrodon piscivorus piscivorus, UniProt P51972); assay: PLA2 reaction time profile, lag-time and HPLC percent hydrolysis of unilamellar liposomes; type: biochemical; conditions: FIG. 3, liposomes composed of 1-O-DPPC, after PLA2 addition
T2 construct: This PLA2 enzyme belongs to the class of low-molecular weight 14 kD secretory enzymes; from tissue; host or cells: snake venom of Agkistrodon piscivorus piscivorus
T2 sequence (P51972 1-123): T1 sequence (P51972 1-123)
Experimental: Phospholipase A2 reaction profile and lag time measurements Purified snake-venom phospholipase A2 (PLA2 from Agikistrodon piscivorus piscivorus) has been isolated according to the procedure of Maraganore et al., J. Biol. Chem. 259, 13839-13843. […] Assay conditions for the PLA2 reaction time profile shown in FIG. 2 and the lag-time and percent hydrolysis reported in Table 1 were: 0.15 mM unilamellar liposomes, 150 nM PLA2, 150 mM KCL, 10 mM HEPES (pH 7.5), 1 mM NaN3, 30 μM CaCl2, and 10 μM EDTA.
Lag-time and percent hydrolysed 1-O-DPPC at 41° C. as determined by HPLC. The lipid concentration was 0.150 mM in a 10 mM HEPES-buffer (pH=7.5).
The catalytic reaction was initiated by adding 8.9 μL of a 42 μM PLA2 (150 nM) stock solution to 2.5 ml of the thermostated liposome suspension (0.150 mM) equilibrated for 800 sec prior to addition of PLA2. The characteristic lag-burst behaviour of PLA2 towards the liposomes is signalled by a sudden increase in the intrinsic fluorescence from PLA2 at 340 nm after excitation at 285 nm followed by a concomitant decrease in the 90° light scattering from the lipid suspension (Hønger et al., Biochemistry 35, 9003-9006). […] The turnover of the PLA2 catalysed lipid hydrolysis of 1-O-DPPC to lyso-1-O-PPC was measured by HPLC (see Table 1). […]

[3] = Calcein release across target membrane on adding lyso-phospholipid and fatty acid in the absence of PLA2; conditions: absence of PLA2, 25 μM target membranes, 39° C., FIG. 12
Excerpt: The experimental model system consists of a negatively charged liposome carrier and a model target membrane. The carrier is a 100 nm unilamellar liposome made of dipalmitoyl phosphatidylcholine lipids (DPPC) with small amounts (2.5 mol %) of negatively charged lipid of the type dipalmitoyl phosphatidylethanolamine (DPPE)—PEG2000. The target membrane is another liposome made of 1,2-O-dioctadecyl-sn-glycero-phosphatidylcholine (D-O-SPC) which is a phospholipid where the acyl linkages of the stearoyl chains are ether bonds. In contrast to DPPC, D-O-SPC is inert towards PLA2-catalysed hydrolysis thereby mimicking the stability of an intact target cell membrane toward degradation by its own enzymes. […] The permeation of calcein across the D-O-SPC target membrane is subsequently monitored by the increase in fluorescence. […]
Multilamellar target liposomes in the presence of fluorescent calcein in a self-quenching concentration of 20 mM were made by hydrating a film of D-O-SPC in a HEPES buffer solution at pH=7.5 for one hour at 10° C. above the phase transition temperature Tm=55° C. […] Calcein release from the target liposomes is determined by measuring the fluorescent intensity at 520 nm after excitation at 492 nm. […]

[4] = target: T3, phospholipase A2 (A. piscivorus piscivorus) (Agkistrodon piscivorus piscivorus, UniProt P51972)
T3 sequence (P51972 1-123): T1 sequence (P51972 1-123)
Experimental: The hydrolysis of micelles composed DSPE-PEG750 was followed by analysis of the amount of stearic acid generated. The catalytic reaction was initiated by adding 8.9 μL of a 42 μM PLA2 (150 nM) stock solution to 2.5 ml a thermostated micelle suspension of DSPE-PEG750 (0.150 mM) equilibrated at 45° C. for 600 seconds prior to addition of PLA2. The characteristic burst behaviour of PLA2 towards the micelles is signalled by a sudden increase in the intrinsic fluorescence from PLA2 at 340 nm after excitation at 285 nm followed by a concomitant decrease in the 90° light scattering from the lipid suspension (Hønger et al., Biochemistry 35, 9003-9006). Samples for HPLC analysis of the amount of stearic acid generated were taken before adding PLA2 and 100 sec after the observed lag-time. […] HPLC analysis was made using a 5 μm diol column, a mobile phase composed of chloroform/methanol/water (730:230:30, v/v) and an evaporative light scattering detector (see example 2).

## 1—hexadecyl-2-hexadecanoyl-sn-glycero-3-phosphoethanolamine-N-[methoxy(poly-ethylene glycol)-2000] [DPPE-PEG2000]
[1]; DPPC + 2.5 mol % DPPE-PEG2000 carriers, 37° C.
  rate of release of calcein across target membrane versus bare DPPC carriers: dramatically enhanced
[1]; DPPC carrier liposomes with 2.5 mol % DPPE-PEG2000, 37° C.
  change of lag time versus bare DPPC carriers: dramatic decrease in the lag time

## CCCCCCCCCCCCCCCCOC[C@H](COP(=O)([O-])OCC[N+](C)(C)C)OC(=O)CCCCCCCCCCCCCCC [1-O-DPPC]
[2]
  amount of 1-O-DPPC after the lag-burst (HPLC; 100% before PLA2): 21%

## CCCCCCCCCCCCCCCCCCOC[C@H](COP(=O)([O-])OCC[N+](C)(C)C)OCCCCCCCCCCCCCCCCCC [D-O-SPC, 1,2-O-dioctadecyl-sn-glycero-3-phosphatidylcholines]
[1]; target membrane lipid
  behaviour towards PLA2-catalysed hydrolysis: inert

## CCCCCCCCCC(=O)OC[C@H](COP(=O)([O-])OCC[N+](C)(C)C)OC(=O)CCCCCCCCC [DCPC, didecanoyl phosphatidylcholine]
[1]; small amount of DCPC in carrier PEG-liposomes, FIG. 11a
  calcein release across target membrane with short-chain phospholipid in carrier PEG-liposomes: very fast

## CC(C)CCC[C@@H](C)[C@H]1CC[C@H]2[C@@H]3CC=C4C[C@@H](O)CC[C@]4(C)[C@H]3CC[C@]12C [cholesterol]
[1]; large amount (≈20 mol %) incorporated into liposomes, data not shown
  effect on extracellular PLA2 activity: deactivated
[1]; small amount (≈3 mol %) in liposomes
  effect on extracellular PLA2 activity: activates

## CCCCCCCCCCCCCCCC(=O)O [fatty acid, palmitic acid]
[3]
  rate of calcein release across the target membrane, added separately: increased rate of calcein release

## di-octadecanoyl-sn-glycero-3-phosphoethanolamine-N-[methoxy(polyethylene glycol)-750 [DSPE-PEG750]
[4]; 0.150 mM DSPE-PEG750 micelles, 150 nM PLA2, 45° C.
  amount of stearic acid generated by hydrolysis: 0.156 mM and 0.157 mM
[4]; 0.150 mM micelles, 150 nM PLA2, 45° C., 100 sec after lag time
  hydrolysis of DSPE-PEG750 to lyso-DSPE-PEG750 and stearic acid: 100%
[4]; DSPE-PEG750 micelles 0.150 mM, 45° C.
  observed lag time: 10 s

From patent US20030170297A1, “Lipid-based drug delivery systems containing phospholipase a2 degradable lipid derivatives for topical application to the skin” (priority 2000, published 2003)
